From patent US10202347B2, “Compound, production method therefor, and use of said compound” (MICROBIAL CHEMISTRY RESEARCH FOUNDATION, priority 2013, dated 2019) come the findings set out here.

Like-named read-outs stand apart in the source and are kept apart here.

Format in all cases: cell-based
Test [1] deals with Haemophilus influenza T-196 strain. The experiment in a line: Measurement of MIC for Haemophilus influenza T-196. To be noted: read-out: MIC Haemophilus influenzae T-196. How it is done:
(§1) Each of the above compounds was measured for minimum inhibitory concentration (MIC) for Haemophilus influenza.
(§2) Haemophilus influenza T-196 strain and H. influenza ARD476 strain each were statically cultured in a HI medium (Muller Hinton medium (product of Becton, Dickinson Co.) supplemented with 5% Fildes enrichment (product of Becton, Dickinson Co.)) at 37° C. overnight under aerobic conditions containing 5% carbon dioxide gas.
(§3) After completion of the culturing, the culture was suspended with the HI medium and diluted so that each Haemophilus influenza strain was 2×10^6 CFU/mL to 9×10^6 CFU/mL.
(§4) Each of the test samples (each of the above compounds, clarithromycin, and ampicillin) was prepared with the HI medium to have a concentration of 256 mg/L. From this concentration, the test sample was 2-fold diluted serially in 11 steps to 0.125 mg/L.
(§5) The above-diluted culture was added at 50 μL/well to 50 μL/well of the HI medium containing each of the test samples at the above concentrations, and was statically cultured for 18 hours at 37° C. under aerobic conditions containing 5% carbon dioxide gas.
(§6) After completion of the culturing, the presence or absence of proliferation of each bacterium was visually determined based on turbidity, and the MIC for each bacterial strain was obtained.

The subject of test [2] is human stomach cancer cells MKN-74 cocultured with normal stromal cells derived from the human stomach, Hs738. Description: Cell proliferation test, coculture test with normal stromal cells Hs738 (GFP fluorescence). The method, then: Human stomach cancer cells MKN-74 (Riken Cell Bank) were cultured at 37° C. and 5% CO2 in DMEM supplemented with 10% FBS (product of GIBCO Co.), 100 units/mL penicillin G (product of Invitrogen Co.), and 100 μg/mL streptomycin (product of Invitrogen Co.).
The above cancer cells were allowed to undergo gene transfer of Green fluorescence protein (GFP) expression vector, pEGFP-C1 (product of BD Biosciences Co.) using the Lipofectamine reagent (product of Invitrogen Co.), to thereby clone cells stably expressing GFP.
Normal stromal cells derived from the human stomach, Hs738 ((CRL-7869), ATCC) were cultured at 37° C. and 5% CO2 in DMEM supplemented with 10% FBS, 100 units/mL penicillin G (product of Invitrogen Co.), 100 μg/mL streptomycin (product of Invitrogen Co.), 5 μg/mL insulin, 5 μg/mL transferrin (product of Wako Pure Chemical Industries Co.), 1.4 μM hydrocortisone (product of Sigma Co.), and […] basic-FGF (product of Pepro Tech Co.).
The above normal stromal cells derived from the human stomach, Hs738 were dispersed at 5×10^4 cells/mL in DMEM containing 1% dialyzed serum, 5 μg/mL insulin, 5 μg/mL transferrine (product of Wako Pure Chemical Industries Co.), and 1.4 μM hydrocortisone (product of Sigma Co.), and were placed in a 96-well plate at 0.1 mL/well. Respective evaluation samples (the compounds expressed by Structural Formulas (1) to (13)) were added thereto at respective concentrations, followed by culturing at 37° C. and 5% CO2 for 2 days.
Next, the above human stomach cancer cells MKN-74 were dispersed in DMEM at 5×10^5 cells/mL, and were placed at 10 μL/well in the plate in which the above normal stromal cells derived from the human stomach, Hs738 had been cultured, followed by further coculturing at 37° C. and 5% CO2 for 3 days.
Measurement of cell proliferation rates in the above coculture test and monoculture test was performed in the following manner.
The medium was removed from the wells of the above plate, and a cytolysis liquid (10 mM Tris-HCl [pH 7.4], 150 mM NaCl, 0.9 mM CaCl2, and 1% Triton X-100) was added thereto at 0.1 mL/well to lyse the cells. The fluorescence intensity of GFP was measured at an excitation wavelength of 485 nm and a fluorescence wavelength of 538 nm, and the cell proliferation rates were calculated from the following formula. Cell proliferation rate (%)=(Fluorescence intensity in the presence of the evaluation sample/Fluorescence intensity in the absence of the evaluation sample)×100

Test [3] concerns H. influenza ARD476 strain. The experiment in a line: Measurement of MIC for H. influenza ARD476. Conditions: Haemophilus influenzae, ARD476STRAIN, read-out: MIC H. influenzae ARD476. The method, then:
as §1, §2, §3, §4, §5, §6

Test [4] concerns Escherichia coli K-12 strain. Description: Measurement of MIC for Escherichia coli. Conditions: K12STRAIN, read-out: MIC Escherichia coli K-12. The method, then: Each of the above compounds was measured for minimum inhibitory concentration (MIC) for Staphylococcus aureus and Escherichia coli.
Staphylococcus aureus FDA209P strain and Escherichia coli K-12 strain each were cultured under shaking in a nutrient broth medium (polypeptone (product of NIHON PHARMACEUTICAL Co.) 1%, fish extract for bacteria (product of KYOKUTO PHARMACEUTICAL INDUSTRIAL Co.) 1%, and sodium chloride 0.2%) at 37° C. overnight.
After completion of the culturing, the culture was diluted with the nutrient broth medium so that the bacteria were 2×10^6 CFU/mL to 9×10^6 CFU/mL.
Each of the test samples (each of the above compounds, clarithromycin, and ampicillin) was prepared with the nutrient broth medium to have a concentration of 256 mg/L. From this concentration, the test sample was 2-fold diluted serially in 11 steps to 0.125 mg/L.
The above-diluted culture was added at 50 μL/well to 50 μL/well of the nutrient broth medium containing each of the test samples at the above concentrations, and was statically cultured at 37° C. overnight. After completion of the culturing, the presence or absence of proliferation of each bacterium was visually determined based on turbidity, and the MIC for each bacterial strain was obtained.

Test [5] concerns H. pylori JCM12095 strain. Description: Measurement of MIC for H. pylori JCM12095. Conditions: Helicobacter pylori, read-out: MIC H. pylori JCM 12095. The method, then: Each of the above compounds was measured for minimum inhibitory concentration (MIC) for Helicobacter pylori.
Helicobacter pylori JCM12093 strain and H. pylori JCM12095 strain each were statically cultured in a HP medium (brain heart infusion broth (product of Becton, Dickinson Co.) supplemented with 10% fetal bovine serum (product of Life Technologies Co.)) for 144 hours at 37° C. under microaerobic culture conditions (microaerobic conditions (N2:O2:CO2=85:5:10)).
After completion of the culturing, the culture was suspended with the HP medium and diluted so that Helicobacter pylori was 2×10^6 CFU/mL to 9×10^6 CFU/mL.
Each of the test samples (each of the above compounds, clarithromycin, and ampicillin) was prepared with the HP medium to have a concentration of 256 mg/L. From this concentration, the test sample was 2-fold diluted serially in 15 steps to 0.0078 mg/L.
The above-diluted culture was added at 50 μL/well to 50 μL/well of the HP medium containing each of the test samples at the above concentrations, and was statically cultured for 144 hours at 37° C. under microaerobic culture conditions (microaerobic conditions (N2:O2:CO2=85:5:10)). After completion of the culturing, the presence or absence of proliferation of each bacterium was visually determined based on turbidity, and the MIC for each bacterial strain was obtained.

[6] abbreviates: HI medium, 18 hours, 37° C., 5% carbon dioxide.
Where [7] appears, read: coculture test, MKN-74 with stromal cells Hs738, cell proliferation rate, average of duplicate, read-out: Cocul IC50.
The mark [8] stands for this setting: nutrient broth medium, 37° C. overnight.
[9] abbreviates: JCM12095, HP medium, 144 hours, 37° C., microaerobic.

In the case of `CCCCCCCCc1nc2ccccc2c(OCC(=O)O)c1C` [Structural Formula (2)], the MIC in test [1] (setting [6]) worked out at 64 mg/L; in test [3] (setting [6]), 64 mg/L; in test [4] (setting [8]), 128 mg/L; in test [5] (setting [9]), 0.5 mg/L. The IC50 in test [2] (setting [7]) worked out at 0.37 mg/L.

`CCCCCCCCc1c(C)c(=O)c2ccccc2n1CC(=O)O` [Structural Formula (6)]: the MIC is 128 mg/L in test [1] (setting [6]), 128 mg/L in test [3] (setting [6]), 128 mg/L in test [4] (setting [8]) and 0.25 mg/L in test [5] (setting [9]). Also, the IC50 in test [2] (setting [7]) amounted to 4.15 mg/L.

`CCCCCCCc1c(C)c(=O)c2ccccc2n1CN=C=S` [Structural Formula (11)]: the MIC in test [1] (18 h) is greater than 128 mg/L; in test [3] (18 h), greater than 128 mg/L; in test [4], greater than 128 mg/L; in test [5] (setting [9]) it was 0.016 mg/L. In addition, in test [2] (setting [7]), the IC50 is 0.12 mg/L.

For `Cc1c(CCCC/C=C/C(C)C)[nH]c2ccccc2c1=O` [Structural Formula (3)], the MIC was greater than 128 mg/L in test [1] (setting [6]), greater than 128 mg/L in test [3] (setting [6]), greater than 128 mg/L in test [4] (setting [8]) and 0.016 mg/L in test [5] (setting [9]). In addition, the IC50 in test [2] (setting [7]) turned out to be 0.012 mg/L.

`CCCCCCCc1c(C)c(=O)c2ccccc2n1CN=C(SC)SC` [Structural Formula (13)]: the MIC in test [1] (setting [6]) is greater than 128 mg/L; in test [3] (setting [6]), greater than 128 mg/L; in test [4] (setting [8]), greater than 128 mg/L; in test [5] (JCM12095, 144 h), 2 mg/L. In addition, in test [2] (MKN-74, read-out: Cocul IC50), the IC50 was 0.78 mg/L.

Take `Cc1c(CC(C)C)[nH]c2ccccc2c1=O` [Structural Formula (4)]: the MIC in test [1] (setting [6]) was 64 mg/L; in test [3] (setting [6]), 128 mg/L; in test [4] (setting [8]), 128 mg/L; in test [5] (setting [9]), 0.25 mg/L. In addition, the half-maximal inhibitory concentration (IC50) in test [2] (setting [7]) came out at 1.32 mg/L.

As to `CCCCCCCCc1c(C)c(=O)c2ccccc2n1CC(=O)OC` [Structural Formula (5)], the MIC in test [1] (setting [6]) is greater than 128 mg/L; in test [3] (setting [6]) it was greater than 128 mg/L; in test [4] (setting [8]), greater than 128 mg/L; in test [5] (setting [9]), 2 mg/L. Further, the IC50 in test [2] (setting [7]) was 0.53 mg/L.

For `CCCCCCCc1c(C)c(=O)c2ccccc2n1CNC(=S)SC` [Structural Formula (12)], the MIC in test [1] (setting [6]) is greater than 128 mg/L; in test [3] (setting [6]) it was greater than 128 mg/L; in test [4] (setting [8]) it was greater than 128 mg/L; in test [5] (JCM12095, 144 h), 0.06 mg/L. Moreover, the IC50 in test [2] (MKN-74, read-out: Cocul IC50) was 2.91 mg/L.
